Assays:
xanthine oxidase (XO) [1] = molecular target: T1, xanthine oxidase (XO) (Bos taurus, UniProt P80457)
T1 construct: gene XDH

xanthine oxidase (XO) [2] = molecular target: T1, xanthine oxidase (XO); test: SPR (Biacore T200, CM5 chip, immobilised XO, steady-state analysis); also lowers uric acid production by purified XO (UHPLC-MS); assay type: binding

T1 sequence (P80457 2-1332): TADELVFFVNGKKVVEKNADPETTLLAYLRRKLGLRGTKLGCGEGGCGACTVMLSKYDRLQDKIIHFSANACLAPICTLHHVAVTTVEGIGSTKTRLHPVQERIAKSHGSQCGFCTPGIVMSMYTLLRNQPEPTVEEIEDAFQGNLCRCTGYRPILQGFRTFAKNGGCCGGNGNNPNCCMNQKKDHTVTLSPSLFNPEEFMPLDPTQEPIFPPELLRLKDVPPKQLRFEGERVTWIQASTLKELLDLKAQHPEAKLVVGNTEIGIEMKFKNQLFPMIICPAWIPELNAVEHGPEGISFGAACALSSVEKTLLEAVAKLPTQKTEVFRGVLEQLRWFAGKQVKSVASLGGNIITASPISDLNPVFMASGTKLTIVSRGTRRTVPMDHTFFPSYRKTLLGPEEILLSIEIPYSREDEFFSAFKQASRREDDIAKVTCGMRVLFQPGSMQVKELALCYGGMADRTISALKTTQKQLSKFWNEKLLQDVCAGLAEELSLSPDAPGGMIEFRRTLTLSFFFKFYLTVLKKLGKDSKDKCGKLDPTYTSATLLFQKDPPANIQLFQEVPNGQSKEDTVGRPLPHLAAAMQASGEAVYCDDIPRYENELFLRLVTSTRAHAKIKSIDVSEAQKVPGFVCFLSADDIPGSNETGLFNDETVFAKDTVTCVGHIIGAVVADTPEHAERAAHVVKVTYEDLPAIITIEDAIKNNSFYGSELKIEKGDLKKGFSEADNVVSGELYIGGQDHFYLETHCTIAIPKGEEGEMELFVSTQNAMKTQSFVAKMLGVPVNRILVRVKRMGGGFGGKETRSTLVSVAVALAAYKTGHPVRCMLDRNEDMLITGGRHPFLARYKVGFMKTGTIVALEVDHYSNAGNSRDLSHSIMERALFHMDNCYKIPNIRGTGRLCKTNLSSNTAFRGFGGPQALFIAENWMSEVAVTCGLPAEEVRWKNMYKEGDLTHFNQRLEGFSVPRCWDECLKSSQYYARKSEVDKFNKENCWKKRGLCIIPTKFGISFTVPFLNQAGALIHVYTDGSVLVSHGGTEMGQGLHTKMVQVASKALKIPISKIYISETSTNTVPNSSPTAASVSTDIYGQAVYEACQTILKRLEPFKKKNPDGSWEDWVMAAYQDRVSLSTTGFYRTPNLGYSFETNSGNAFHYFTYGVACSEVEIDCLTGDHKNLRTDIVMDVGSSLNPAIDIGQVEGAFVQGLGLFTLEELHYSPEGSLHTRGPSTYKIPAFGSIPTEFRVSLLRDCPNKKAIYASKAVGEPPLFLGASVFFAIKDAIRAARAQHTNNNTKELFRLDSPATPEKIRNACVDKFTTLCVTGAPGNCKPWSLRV

Structure (SMILES) | XO reaction-UHPLC/MS assay of uric acid production from xanthine, AP at 100 μM a (xanthine oxidase (XO) [1]) | Kd (xanthine oxidase (XO) [2]) [nM]
Oc1ncnc2[nH]ncc12 [AP, allopurinol] | We observed a significant reduction in uric acid levels in the AP treated group, a potent purine-like XOI | –
OC[C@H]1O[C@@H](Oc2cc3c(O)cc(O)cc3[o+]c2-c2cc(O)c(O)c(O)c2)[C@H](O)[C@@H](O)[C@@H]1O [Dp-3G, delphinidin-3-glucoside] | – | 250

Source: paper PMC12869243, “Urate-lowering effect of delphinidin-3-glucoside in red kidney beans via binding to the FAD site of the XO enzyme” (Journal of Advanced Research, 2025)
